Measured values from patent publication US10842150B2, “Method of controlling Fusarium on potato using lower alkyl naphthalene” (1,4Group, Inc., priority 2018, dated 2020).
Entries after “also recorded” stand apart in the source; their conditions may differ.

Tests used:
F. oxysporum = test: Single spore isolate plates of F. oxysporum exposed to 1,4-DMN vapour; colony count and mycelium diameter; format: cell-based, Fusarium oxysporum
Excerpt: F. oxysporum was isolated from the surface of potato tuber using the Fusarium selective media Nash-Snider, to which cultures were transferred and maintained on nutritionally complex potato dextrose agar plates. DNA sequencing using selective primers NL1, NL2, ITS1F, and ITS2R confirmed the fungus to be F. oxysporum.
A single spore isolation technique was utilized to record the number and growth response of the spores treated with 1,4-DMN in comparison with the spores treated with water (i.e., the Control). Single spore isolate plates were contained in vacuum sealed chambers and incubated at a constant temperature of about 22° C., while exposed to 7.5 μl of 1,4-DMN via aerosol dispersion for four days. After a day of rest, the spores on each plate were measured and counted.
Potato skin scrapings were cultured on the Fusarium selective media Nash Snider Agar, and later transferred and maintained on nutritionally complex Potato Dextrose Agar (PDA) (Step 1.1 in FIG. 1). DNA isolations were performed on single spore isolates using a Power Soil DNA Isolation Kit (Step 1.2 in FIG. 1). Several primers as shown in FIG. 2 were studied for amplification of Fungal DNA. Fusarium selective primers NL1, NL2, ITS1F, and ITS2 allowed PCR amplification of fungal strains genomically similar to Fusarium. […] The DNA were sequenced, and the sequence data were analyzed using NCBI BLASTn sequence alignment (Step 1.4 in FIG. 1). […] The strain identified as F. oxysporum was then subjected to treatments of DMN (7.5 μl) in specialized airtight bins, and incubated at a constant temperature of about 25° C. for four days (Step 1.5 in FIG. 1). […] Then, colony quantity and mycelium diameter were determined (Step 1.6 in FIG. 1).

Fusarium spp. = details: two storage trials over two years; cited from earlier work
Fusarium wilt = details: treatment of potato tuber; cited from earlier work

Cc1ccc(C)c2ccccc12 [1,4-DMN, 1,4-dimethyl naphthalene]
Average Colony mycelium diameter (F. oxysporum; 7.5 μl 1,4-DMN via aerosol dispersion in sealed chamber, four days, about 22° C. / 25° C., Control 9.89 cm): 2.94 cm
Average Colonies per Plate (F. oxysporum; 7.5 μl 1,4-DMN, four days, Control 4.05): 4.125
Total Colonies (F. oxysporum; 7.5 μl 1,4-DMN, four days, Control 162): 165
mycelium growth of F. oxysporum versus untreated Control (in words) (F. oxysporum; exposure to 1,4-DMN for four days): slower mycelium diameter growth; also recorded: inhibition of mycelium growth

OP(O)O [Phosphorous acid, phosphorous acid]
efficacy in suppressing tuber infection caused by Fusarium spp. (in words) (Fusarium spp.): moderately effective

CO/C=C(/C(=O)OC)c1ccccc1Oc1cc(Oc2ccccc2C#N)ncn1 [azoxystrobin]
efficacy in suppressing tuber infection caused by Fusarium spp. (in words) (Fusarium spp.): moderately effective

N#Cc1c[nH]cc1-c1cccc2c1OC(F)(F)O2 [fludioxonil]
effect in controlling Fusarium wilt development (in words) (Fusarium wilt): limited effect

OO [hydrogen peroxide]
efficacy in suppressing tuber infection caused by Fusarium spp. (in words) (Fusarium spp.): moderately effective

c1ccc2ncccc2c1 [quinoline]
effect in controlling Fusarium wilt development (in words) (Fusarium wilt): limited effect
